Measurements reported in patent publication US9522924B1, “Pyridone derivatives as acid secretion inhibitors and process for preparation thereof” (Emcure Pharmaceuticals Limited, priority 2012, dated 2016).
Read-outs that look alike come from different tables or passages of the source.

Key:
[1] = system: Indomethacin-induced gastric ulceration; experiment: Indomethacin-induced gastric ulceration model in rats; type: in vivo, female albino Wistar rats; conditions: oral, 1 hour before indomethacin 30 mg/kg p.o.; for ED (effect similar to omeprazole 10 mg/kg): Rattus norvegicus, read-out: Indomethacin-induced ulcer model (dose @ which effect is similar to 10mpk of omeprazole)
Procedure: The anti-ulcer efficacy of various test compounds (I-A-1 to I-A-11, I-B-1 to I-B-3) was assessed in Indomethacin—induced gastric ulceration model in female albino Wistar rats (Bhattacharya S., Banerjee D., Bauri A. K., Chattopadhyay S., Bandyopadhyay S. K. Healing property of the piper betelphenol, allylpyrocatechol against indomethacin-induced stomach ulceration and mechanism of action. World J Gastroenterol., 13(27): 3705-13, 2007; Lee A. Animal models of gastroduodenal ulcer disease. Bailliere's Best Pract. Res. Clinic Gastroenterol., 14(1): 75-96, 2000). The test compounds were administered orally at various doses (0.2, 0.4, 0.8 and 1.6 mg/kg) in comparison to Omeprazole (10 mg/kg) as standard comparator.
Experiments were conducted in overnight fasted healthy female albino Wistar rats maintained at controlled environmental conditions of temperature and humidity with water given ad libitum. Non-steroidal anti-inflammatory drug (NSAID), Indomethacin (30 mg/kg, p.o.) was used to induce gastric ulcer (treatment groups) with a comparative group without indomethacin treatment (negative group). Indomethacin was administered to treatment groups 1 hour after oral treatment with Vehicle (1% CMC), various doses of test compounds (EPPIs) and Omeprazole (10 mg/kg). After 4-6 hours after indomethacin administration, the animals were sacrificed by cervical dislocation and their stomach was dissected out. Various parameters like macroscopic ulcer index, gastric mucus content and gastric acid pH measurements were undertaken. The rat stomachs were cut opened along the greater curvature for macroscopic determination of ulcer index.

H^+/K^+ ATPase [2] = target: T1, H^+/K^+ ATPase (Sus scrofa, UniProt P19156); experiment: H+K+-ATPase assay (p-NPP to p-NP), enzyme from porcine (pig) fundus; type: biochemical; conditions: for IC50: enzyme from porcine fundus, pH 6.0, 30 min pre-incubation at 37° C.
T1 construct: using an enzyme isolated from the rabbit or porcine (pig) fundus; from tissue; host or cells: porcine (pig) gastric fundus
Procedure: (§1) H+K+-ATPase Assay Protocol Description:
(§2) Evaluation of the effects of compounds on the activity of the H^+/K^+ ATPase activity was quantified by measuring the formation of para-nitrophenol (p-NP) from para-nitrophenol phosphate (p-NPP) using an enzyme isolated from the rabbit or porcine (pig) fundus.
(§3) The test compound, reference compound or water (control) are pre-incubated for 30 min at 37° C. with the enzyme (5 μg) in a buffer containing 40 mM Hepes/Tris (pH 6.0), 20 mM KCl, 5 mM MgCl2 and 1 mM ouabain. The enzymatic reaction was then initiated by the addition of 2 mM p-NPP.
(§4) The absorbance was measured immediately at k=405 nm using a microplate reader (EnVision, Perkin Elmer). This measurement at t=0 was also used to verify any compound interference with the spectrophotometric detection at the selected wavelength.
(§5) Thereafter, the mixture was incubated for 15 min at 37° C., after which time the reaction is stopped by addition of 0.5 M NaOH and a second measurement is made at the same wavelength (t=15). The enzyme activity is determined by subtracting the signal measured at t=0 from that measured at t=15. The results are expressed as a percent inhibition of the control enzyme activity.
(§6) The standard inhibitory reference compound is omeprazole,
(§7) Bibliographic reference: Dantzig, H., Minor, P. L. Garrigus, J. L., Fukuda, D. S. and Mynderse, J. S., Studies of the mechanism of action of A80915A, a semi-naphtolquinone natural product, as an inhibitor of gastric (H+/K+)-ATPase, Biochem. Pharmacol. (1991), 42: 2019.
(§8) Assay volume and format: 250 μl in 96-well plate
(§9) Compound addition: [100×] solution in solvent, then [10×] solution in water Maximum tolerable DMSO concentration: 1%

H^+/K^+ ATPase [3] = target: T2, H^+/K^+ ATPase (Oryctolagus cuniculus, UniProt P27112); experiment: H+K+-ATPase assay (p-NPP to p-NP), enzyme from rabbit fundus; type: biochemical; conditions: pH 6.0, 30 min pre-incubation at 37° C.
T2 construct: using an enzyme isolated from the rabbit or porcine (pig) fundus; from tissue; host or cells: rabbit gastric fundus
Procedure: as §1, §2, §3, §4, §5, §6, §7, §8, §9

H^+/K^+ ATPase [4] = target: T2, H^+/K^+ ATPase; conditions: literature value (Scott and Sundell, Eur. J Pharmacol 1985); read-out: IC50 (Rabbit); cited from earlier work
H^+/K^+ ATPase [5] = target: T1, H^+/K^+ ATPase; conditions: literature value (Keeling et al., Biochem Pharmacol 1985); read-out: IC50 (Pig-Porcine); cited from earlier work

T1 sequence (P19156 2-1034 limits assumed): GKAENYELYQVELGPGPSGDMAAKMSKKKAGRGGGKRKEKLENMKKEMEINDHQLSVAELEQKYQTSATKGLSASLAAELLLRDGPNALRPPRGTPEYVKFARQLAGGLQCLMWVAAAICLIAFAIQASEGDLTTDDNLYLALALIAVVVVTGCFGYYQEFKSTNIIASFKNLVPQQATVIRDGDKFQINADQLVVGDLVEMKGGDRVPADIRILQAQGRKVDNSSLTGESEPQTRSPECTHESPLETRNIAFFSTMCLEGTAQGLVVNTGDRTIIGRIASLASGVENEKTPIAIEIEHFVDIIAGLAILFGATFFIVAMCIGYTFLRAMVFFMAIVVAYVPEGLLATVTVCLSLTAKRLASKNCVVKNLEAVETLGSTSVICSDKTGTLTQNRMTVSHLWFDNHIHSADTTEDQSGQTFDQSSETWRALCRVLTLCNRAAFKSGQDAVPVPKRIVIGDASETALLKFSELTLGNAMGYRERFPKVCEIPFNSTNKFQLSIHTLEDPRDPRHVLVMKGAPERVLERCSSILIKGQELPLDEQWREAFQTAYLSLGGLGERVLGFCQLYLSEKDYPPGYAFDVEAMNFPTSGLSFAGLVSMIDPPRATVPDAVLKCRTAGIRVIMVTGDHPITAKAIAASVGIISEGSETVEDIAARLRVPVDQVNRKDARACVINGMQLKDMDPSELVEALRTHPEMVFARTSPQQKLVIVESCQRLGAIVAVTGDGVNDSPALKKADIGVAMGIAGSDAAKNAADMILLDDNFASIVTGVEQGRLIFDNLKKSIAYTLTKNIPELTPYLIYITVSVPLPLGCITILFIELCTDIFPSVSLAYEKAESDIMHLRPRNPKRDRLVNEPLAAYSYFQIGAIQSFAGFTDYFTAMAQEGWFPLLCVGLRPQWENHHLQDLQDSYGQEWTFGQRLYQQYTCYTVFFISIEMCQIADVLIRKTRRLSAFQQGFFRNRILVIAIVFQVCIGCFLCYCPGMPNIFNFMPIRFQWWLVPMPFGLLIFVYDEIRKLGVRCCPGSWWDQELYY
T1 sequence (P18434 whole entry partner): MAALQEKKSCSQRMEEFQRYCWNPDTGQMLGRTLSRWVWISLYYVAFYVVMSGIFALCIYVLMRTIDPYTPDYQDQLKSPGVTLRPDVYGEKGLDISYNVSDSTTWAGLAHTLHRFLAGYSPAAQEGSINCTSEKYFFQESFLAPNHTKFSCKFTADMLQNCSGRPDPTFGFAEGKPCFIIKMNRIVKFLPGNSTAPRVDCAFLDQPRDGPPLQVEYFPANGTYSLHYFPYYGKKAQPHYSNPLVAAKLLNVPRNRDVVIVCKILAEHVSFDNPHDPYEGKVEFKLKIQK
T2 sequence (P27112 2-1035 limits assumed): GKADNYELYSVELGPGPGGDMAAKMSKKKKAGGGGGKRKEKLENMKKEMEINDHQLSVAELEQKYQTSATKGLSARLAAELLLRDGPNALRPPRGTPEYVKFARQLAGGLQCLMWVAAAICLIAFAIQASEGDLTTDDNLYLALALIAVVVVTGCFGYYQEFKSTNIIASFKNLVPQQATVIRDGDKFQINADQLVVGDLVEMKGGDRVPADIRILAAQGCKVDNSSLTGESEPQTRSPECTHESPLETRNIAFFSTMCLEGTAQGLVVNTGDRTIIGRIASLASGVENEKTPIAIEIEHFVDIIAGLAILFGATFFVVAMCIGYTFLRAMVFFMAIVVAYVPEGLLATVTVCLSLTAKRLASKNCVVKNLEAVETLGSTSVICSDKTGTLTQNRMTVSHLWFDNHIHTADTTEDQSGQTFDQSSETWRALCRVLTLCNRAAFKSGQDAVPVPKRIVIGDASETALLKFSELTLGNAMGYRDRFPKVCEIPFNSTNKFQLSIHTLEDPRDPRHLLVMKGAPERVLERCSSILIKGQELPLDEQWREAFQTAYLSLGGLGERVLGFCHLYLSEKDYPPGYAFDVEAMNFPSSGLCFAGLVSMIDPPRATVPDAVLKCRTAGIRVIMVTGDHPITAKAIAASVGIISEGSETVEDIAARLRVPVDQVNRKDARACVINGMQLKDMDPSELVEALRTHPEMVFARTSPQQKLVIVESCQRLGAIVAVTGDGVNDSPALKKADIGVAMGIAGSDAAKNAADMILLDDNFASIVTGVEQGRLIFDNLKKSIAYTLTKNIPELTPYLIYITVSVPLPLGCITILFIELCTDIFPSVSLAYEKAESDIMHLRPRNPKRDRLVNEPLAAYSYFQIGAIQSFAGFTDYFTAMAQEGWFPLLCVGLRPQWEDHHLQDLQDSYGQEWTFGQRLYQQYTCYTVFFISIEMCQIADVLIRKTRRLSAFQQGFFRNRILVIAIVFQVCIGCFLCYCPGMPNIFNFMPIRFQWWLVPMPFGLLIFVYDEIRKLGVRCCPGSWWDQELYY
T2 sequence (P18597 whole entry partner): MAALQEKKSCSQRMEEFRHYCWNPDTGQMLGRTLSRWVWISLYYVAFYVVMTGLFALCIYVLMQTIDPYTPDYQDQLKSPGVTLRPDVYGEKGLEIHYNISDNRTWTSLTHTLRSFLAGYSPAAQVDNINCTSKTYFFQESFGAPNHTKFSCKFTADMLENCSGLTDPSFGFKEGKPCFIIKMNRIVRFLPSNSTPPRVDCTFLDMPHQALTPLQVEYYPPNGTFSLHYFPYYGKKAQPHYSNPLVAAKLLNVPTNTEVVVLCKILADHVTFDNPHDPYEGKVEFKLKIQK

Row | SMILES | percent inhibition of the control enzyme activity (printed in IC50 (Pig-Porcine) column) (H^+/K^+ ATPase [2]; @ 3-30 uM) | IC50 (H^+/K^+ ATPase [2]) | IC50 (H^+/K^+ ATPase [3]) | Indomethacin-induced ulcer model (dose @ which effect is similar to 10mpk of omeprazole) [1] | ED (effect similar to omeprazole 10 mg/kg) [1] | IC50 (H^+/K^+ ATPase [4]) | IC50 (H^+/K^+ ATPase [5])
1 | COc1c(CSSCc2c(OC)c(=O)ccn2-c2nc3cc(C)ccc3[nH]2)n(-c2nc3cc(C)ccc3[nH]2)ccc1=O [I-A-5] |  | 2.3 µM | 1.3 µM |  | 1.6 mg/kg |  | 
2 | COc1ccc2[nH]c([S+]([O-])Cc3ncc(C)c(OC)c3C)nc2c1 (centres unmarked) [Omeprazole, omeprazole] |  |  |  |  |  | 4 µM | 3.9 µM
3 | Cc1cn(-c2nc3ccccc3[nH]2)c(CSSCc2c(C)c(=O)c(C)cn2-c2nc3ccccc3[nH]2)c(C)c1=O [I-A-2] |  | 1.3 µM | 1 µM |  | 1.6 mg/kg |  | 
4 | Cc1ccc2[nH]c(-n3cc(C)c(=O)c(C)c3CSSCc3c(C)c(=O)c(C)cn3-c3nc4cc(C)ccc4[nH]3)nc2c1 [I-A-4] |  | 2.9 µM | 1.6 µM |  |  |  | 
5 | COc1c(CSSCc2c(OC)c(=O)ccn2-c2nc3ccccc3[nH]2)n(-c2nc3ccccc3[nH]2)ccc1=O [I-A-3] |  | 2 µM | 1.1 µM |  | 1.6 mg/kg |  | 
6 | COc1ccc2[nH]c(-n3cc(C)c(=O)c(C)c3CSSCc3c(C)c(=O)c(C)cn3-c3nc4cc(OC)ccc4[nH]3)nc2c1 [I-A-6] |  | 4.1 µM | 1.3 µM |  |  |  | 
7 | O=c1ccn(-c2nc3ccccc3[nH]2)c(C[S+]([O-])[S+]([O-])Cc2cc(=O)ccn2-c2nc3ccccc3[nH]2)c1 (centres unmarked) [I-A-1, 2-((2-((1-(1H-benzo[d]imidazol-2-yl)-1,4-dihydro-4-oxopyridin-2-yl)methyl)disulfinyl)methyl)-1-(1H-benzo[d]imidazol-2-yl)pyridin-4(1H)-one] |  | 1.8 µM | 1 µM | 1.6 mg/kg |  |  | 

Continued, in another order:

Row | percent inhibition of the control enzyme activity (printed in IC50 (Pig-Porcine) column) (H^+/K^+ ATPase [2]; @ 3-30 uM) | IC50 (H^+/K^+ ATPase [2]) | IC50 (H^+/K^+ ATPase [3]) | SMILES | Indomethacin-induced ulcer model (dose @ which effect is similar to 10mpk of omeprazole) [1] | ED (effect similar to omeprazole 10 mg/kg) [1] | IC50 (H^+/K^+ ATPase [4]) | IC50 (H^+/K^+ ATPase [5])
8 | 45% @ 3-30 uM |  |  | COc1ccc2[nH]c(-n3cc(C)c(=O)c(C)c3C[S+]([O-])[S+]([O-])Cc3c(C)c(=O)c(C)cn3-c3nc4nc(OC)ccc4[nH]3)nc2n1 (centres unmarked) [I-B-3, 2-((2-((1,4-dihydro-1-(5-methoxy-1H-imidazo[4,5-b]pyridin-2-yl)-3,5-dimethyl-4-oxopyridin-2-yl)methyl)disulfinyl)methyl)-1-(5-methoxy-1H-imidazo[4,5-b]pyridin-2-yl)-3,5-dimethylpyridin-4(1H)-one] | 1.6 mg/kg |  |  | 
9 |  | 1.7 µM | 1.1 µM | COc1c(CSSCc2c(OC)c(=O)ccn2-c2nc3cc(C(F)(F)F)ccc3[nH]2)n(-c2nc3cc(C(F)(F)F)ccc3[nH]2)ccc1=O [I-A-9] |  | 1.6 mg/kg |  | 
10 |  | 8.4 µM | 2 µM | COc1ccc2[nH]c(-n3ccc(=O)c(OC)c3CSSCc3c(OC)c(=O)ccn3-c3nc4nc(OC)ccc4[nH]3)nc2n1 [I-B-2] |  | 1.6 mg/kg |  | 
11 |  | 14 µM | 2.8 µM | Cc1cn(-c2nc3ncccc3[nH]2)c(CSSCc2c(C)c(=O)c(C)cn2-c2nc3ncccc3[nH]2)c(C)c1=O [I-B-1, 2-((2-((1,4-dihydro-1-(1H-imidazo[4,5-b]pyridin-2-yl)-3,5-dimethyl-4-oxopyridin-2-yl)methyl)disulfinyl)methyl)-1-(1H-imidazo[4,5-b]pyridin-2-yl)-3,5-dimethylpyridin-4(1H)-one] |  | 1.6 mg/kg |  | 
12 |  | 3.3 µM | 1.5 µM | COc1c(CSSCc2c(OC)c(=O)ccn2-c2nc3cc(OC(F)F)ccc3[nH]2)n(-c2nc3cc(OC(F)F)ccc3[nH]2)ccc1=O [I-A-11] |  | 1.6 mg/kg |  | 
13 |  | 1.3 µM | 1.2 µM | Cc1cn(-c2nc3cc(F)ccc3[nH]2)c(CSSCc2c(C)c(=O)c(C)cn2-c2nc3cc(F)ccc3[nH]2)c(C)c1=O [I-A-8] |  | 1.6 mg/kg |  | 
14 |  | 4.7 µM | 1.2 µM | COc1ccc2[nH]c(-n3ccc(=O)c(OC)c3CSSCc3c(OC)c(=O)ccn3-c3nc4cc(OC)ccc4[nH]3)nc2c1 [I-A-7, 2-((2-((1,4-dihydro-3-methoxy-1-(5-methoxy-1H-benzo[d]imidazol-2-yl)-4-oxopyridin-2-yl)methyl)disulfinyl)methyl)-3-methoxy-1-(5-methoxy-1H-benzo[d]imidazol-2-yl)pyridin-4(1H)-one] |  | 1.6 mg/kg |  | 
